From PubChem BioAssay AID1645865 (Buhrlage Lab, Dana-Farber Cancer Institute and Novartis …, 2021)
Calls of active or inactive are those of the source.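 The calls were made as follows: active = maximal inhibition of the USP30 enzyme reaching 30% or more across the dose series; inactive = the rest.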

Target: Ubiquitin carboxyl-terminal hydrolase 30 (Homo sapiens) (UniProt Q70CQ3)
Assay: inhibitors of ubiquitin-specific protease 30 deubiquitylating enzyme, concentration dependence, in vitro biochemical, validation of primary hits (AID 1645865)
Conditions: purified USP30, Ub-rhodamine cleavage, fluorescence, 2 h

Ubiquitin carboxyl-terminal hydrolase 30 (Homo sapiens), sequence (Q70CQ3 whole entry, looked up): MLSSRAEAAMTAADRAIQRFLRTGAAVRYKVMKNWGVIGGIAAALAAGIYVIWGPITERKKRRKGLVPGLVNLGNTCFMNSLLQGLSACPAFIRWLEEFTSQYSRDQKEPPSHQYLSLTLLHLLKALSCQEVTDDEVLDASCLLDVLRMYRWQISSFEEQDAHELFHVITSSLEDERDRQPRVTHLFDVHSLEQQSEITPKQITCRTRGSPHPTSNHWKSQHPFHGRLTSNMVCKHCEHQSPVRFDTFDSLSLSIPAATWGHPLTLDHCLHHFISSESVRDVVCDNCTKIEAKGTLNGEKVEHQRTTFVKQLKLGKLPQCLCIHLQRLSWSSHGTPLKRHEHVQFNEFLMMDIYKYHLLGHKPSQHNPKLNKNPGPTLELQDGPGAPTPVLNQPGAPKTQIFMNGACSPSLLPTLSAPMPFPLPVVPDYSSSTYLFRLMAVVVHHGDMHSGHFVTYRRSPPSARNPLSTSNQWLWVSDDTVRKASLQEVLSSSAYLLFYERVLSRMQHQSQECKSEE

SMILES | IC50
COc1ccc(CCNC(=O)CCCCn2c(=O)c3ccccc3n(Cc3cccc(Cl)c3)c2=O)cc1OC | 24.6 µM
COc1ccc(C(=O)Nc2sc3c(c2C(=O)NCc2cccnc2)CCCC3)cc1 | 4.43 µM
CCc1ccc(C(C)NC(=O)C2CCN(c3ccc4nncn4n3)CC2)cc1 (stereo not given) | > 50 µM (inactive)
FC(F)(F)c1cccc(N2CCN(c3nc4ccccc4n4nnnc34)CC2)c1 | > 50 µM (inactive)
COc1cccc(NC(=O)C2Cn3ccnc3C3(CCN(C(C)=O)CC3)O2)c1 (stereo not given) | > 50 µM (inactive)
Cc1cc(C(=O)N2CC(C(=O)Nc3cc(C(F)(F)F)ccc3Cl)C2)no1 | 29.3 µM
CC(C)CCN1C(=O)C2C(C(=O)Nc3ccc(Oc4ccccc4)cc3)C3C=CC2(O3)C1C(=O)NC1CCCCC1 (stereo not given) | 32.5 µM
COc1cc(NC(=O)Cn2c(=O)n(-c3ccc(CC(=O)NC4CCCC4)cc3)c(=O)c3ccccc32)cc(OC)c1 | > 50 µM (inactive)
CNC(=O)C1CN(C(=O)c2ccc(OC)cc2)CC12CCCC2 (stereo not given) | > 50 µM (inactive)
O=C(Nc1ccc2c(c1)OCCO2)c1cc(CN2CCOCC2)on1 | > 50 µM (inactive)
Cc1ccc(-n2nnc(C(=O)NC3CCCCC3)c2N)cc1 | 21.4 µM
COCCNC(=O)c1ccc(-c2ccc(N3CCCCC3)nc2)cc1 | 22.9 µM
CCCc1nc2sc3c(NC4CCCCC4)ncnc3c2c2c1CCC2 | > 50 µM (inactive)
COc1ccc(N2C(=O)[C@@H]3[C@H]4c5ccccc5C=CN4C(C(=O)Nc4ccc5c(c4)OCO5)[C@@H]3C2=O)cc1 (stereo not given in full) | > 50 µM (inactive)
O=C(Cn1c(=O)n(Cc2ccco2)c(=O)c2ccc(C(=O)NC3CCCC3)cc21)NCc1ccco1 | > 50 µM (inactive)
COc1cc(OC)cc(-n2c(=O)c3sccc3n(CC(=O)Nc3ccc(C)cc3)c2=O)c1 | 5.2 µM
Nc1c(-c2ccc(Cl)cc2)cnc2cc(-c3ccc(Cl)c(Cl)c3)nn12 | 1.49 µM
COc1ccc(-c2cc(C(=O)N3CCN(c4ccc([N+](=O)[O-])cc4)CC3)[nH]n2)cc1 | > 50 µM (inactive)
CCOc1ccc(CC(=O)Nc2ccc(-c3cn4cccnc4n3)cc2)cc1 | > 50 µM (inactive)
CC1CCN(S(=O)(=O)c2ccc(C(=O)Nc3ccc(S(N)(=O)=O)cc3)cc2)CC1 | 29.7 µM
Cc1c(OCC(=O)NCC(=O)N2CCC3(O)CCCCC3C2)ccc2c3c(c(=O)oc12)CCCC3 (stereo not given) | 23.7 µM

SMILES | IC50
O=[N+]([O-])c1ccc(NCc2ccc(-c3cccs3)s2)nc1 | 39.1 µM
COc1ccc(Cl)cc1N1C(=O)[C@H]2[C@@H](C1=O)[C@]1(C(=O)Nc3c(C)cc(C)cc31)N1CCC[C@@H]21 | > 50 µM (inactive)
CC(C)N1CC[C@@H]2[C@H](C1)CN2C(=O)Nc1cccc(F)c1 | > 50 µM (inactive)
COc1ncccc1CN1CCn2c(Cn3cccn3)cnc2C1C (stereo not given) | > 50 µM (inactive)
CN1CCN(C(=O)c2cc(-c3ccn(CC4CC4)n3)n3ccccc23)CC1 | > 50 µM (inactive)
CCCc1nc2c(sc3nc4c(cc32)COC(C)(C)C4)c(=O)n1CC(=O)Nc1ccccc1C | 39.7 µM
COc1ccc(C(=O)C2CC(=O)Nc3c2c(C)nn3-c2ccc(Br)cc2)cc1 (stereo not given) | 3.36 µM
COc1cccc(N2CCN(c3ccc4nnc(CCC(=O)N5CCc6ccccc6C5)n4n3)CC2)c1 | 39.2 µM
CC[C@H](C)[C@H](NC(=O)[C@H]([C@@H](C)CC)N(C)C(C)=O)C(=O)N[C@H](C(=O)N[C@@H](CC(C)C)C(=O)C1(C)CO1)[C@@H](C)O (stereo not given in full) | > 50 µM (inactive)
O=C(c1ccnn1-c1ccc2ccc(-c3ccncc3)cn12)N1CCCC1 | > 50 µM (inactive)
Cc1cccc(CNC(=O)C2CCCN(S(=O)(=O)Cc3ccc(F)cc3)C2)c1 (stereo not given) | 14.5 µM
O=C(NCC1CC1)C1CCCN(c2ccc(-c3ccccc3)nn2)C1 (stereo not given) | > 50 µM (inactive)
CC1CCN(S(=O)(=O)c2ccc3[nH]cc(C(=O)NCc4ccco4)c(=O)c3c2)CC1 | > 50 µM (inactive)
COc1ccc(CN=C2NS(=O)(=O)C(c3ccc(F)cc3)=C2C)cc1OC | 25.8 µM
C/C=C\C1=CC(=O)[C@]23C[C@H]2[C@]2(C)CO[C@@]1(O)[C@@]3(O)O2 | > 50 µM (inactive)
COc1cc(O)c2c(c1)C1=CC(=O)C(O)=C[C@]1(C)OC2=O | 34.6 µM
CC1=C[C@@H](C)CC[C@H]2O[C@@H](C3=C(O)C(=O)C(C)=C4O[C@](O)(C=C43)[C@@H](C)C[C@H](C)C1)[C@H](C)[C@@H](O)[C@H]2C | 22.2 µM
COCCNC(=O)Cn1c(=O)n(Cc2ccccc2)c(=O)c2c3c(sc21)CCC3 | 31.7 µM
O=C(Nc1ccc(-c2cn3ccsc3n2)cc1)c1ccc(Cl)c([N+](=O)[O-])c1 | 1.27 µM
CCOC(=O)c1cnc(C(F)(F)F)nc1Sc1n[nH]c(-c2cccs2)n1 | > 50 µM (inactive)

More lines, now with the values ahead:

IC50 | SMILES
> 50 µM (inactive) | COc1ccc(/C=C\c2nccc3c2[nH]c2ccccc23)cc1
> 50 µM (inactive) | CC(=O)c1cccc(NC(=O)c2ccc(CN(c3ccc(C)c(C)c3)S(C)(=O)=O)cc2)c1
36.2 µM | COc1ccc(NC(=O)C2c3ccccc3C(=O)N(C3CCCC3)C2c2cccs2)cc1OC (stereo not given)
40.7 µM | Cc1ccc2cc(CNc3ccccc3)c(=O)n(CC(=O)Nc3ccccc3C)c2c1
26.2 µM | COc1ccc(NS(=O)(=O)c2cc(NC(=O)CCc3nc4ccccc4s3)ccc2C)cc1
> 50 µM (inactive) | Cc1cc(C)n(-c2cccc(C(=O)Nc3ccc4c(c3)CCN4S(C)(=O)=O)c2)n1
3.45 µM | CCOc1ccc(-c2noc(-c3nn(-c4cccc(OC)c4)ccc3=O)n2)cc1
> 50 µM (inactive) | FC(F)(F)c1ccccc1CCN1CCc2nc3ncc(Cl)cc3cc2C1
5.14 µM | Cc1ccc(Cn2c(=O)n(CCC(=O)NCCc3ccccc3)c(=O)c3ccccc32)cc1
> 50 µM (inactive) | Cc1ccccc1Cn1ccc2ccn(Cc3cccnc3)c2c1=O
25.6 µM | Cc1nc(NCc2ccccn2)c2cc(-c3ccccc3)sc2n1
> 50 µM (inactive) | CC1Oc2ccccc2C(=O)N(Cc2ccc([N+](=O)[O-])cc2)C1=O (stereo not given)
6.42 µM | Cc1ccc(Cl)cc1NC(=O)c1cc(-c2ccccn2)n[nH]1
3.12 µM | COc1ccc(OC)c(-n2c(SCC(=O)N3CCc4ccccc43)nnc2-c2cccc(S(=O)(=O)N(C)C)c2)c1
8.96 µM | Cc1ccc2[nH]c(=O)c(CN(CC3COCCO3)S(=O)(=O)c3ccc(F)cc3)cc2c1 (stereo not given)
3.03 µM | Cc1c(Cl)cccc1NC(=O)Cn1ccc2ccccc2c1=O
> 50 µM (inactive) | Cc1ccc2c(c1)N=C(c1ccc([N+](=O)[O-])cc1)CO2
34.3 µM | CN1CCC(N(C)S(=O)(=O)c2ccc(NC(=O)c3cccc(OCc4ccccc4)c3)cc2)CC1
25.4 µM | COc1cc(=O)c(C(=O)Nc2ccc(C#N)cc2)nn1-c1cccc(F)c1
8.55 µM | COc1ccc(NC(=O)Nc2cccc(-c3nnc(-c4ccccc4)o3)c2)cc1OC
45.4 µM | O=C(Cc1cccc2ccccc12)Nc1nc2ccc(F)cc2s1
18.3 µM | COc1ccc(NS(=O)(=O)c2ccc(NC(=O)Nc3ccc(Cl)cc3)cc2)cc1
4.88 µM | Cc1cc(N2CCN(c3ncccn3)CC2)nc2ccc(NC(=O)/C=C/c3ccccc3Cl)cc12
31.5 µM | Cc1ccc(CN2CCCn3nc(C(=O)NCc4ccccc4C)cc3C2=O)cc1
> 50 µM (inactive) | COc1ccc(CNC(=O)CN2C(=O)C(C)=C(c3ccc(C)cc3)S2(=O)=O)cc1
21.1 µM | CCC1=C(c2ccc(C)cc2)S(=O)(=O)NC1=NCC(=O)NC(C)c1ccccc1 (stereo not given)
34 µM | Cc1ccc(OCC(=O)Nc2cccc(-c3nc4ncccc4o3)c2)c(C)c1

IC50 | SMILES
18.3 µM | O=C(Cc1cc(-c2ccc(F)cc2)on1)NCc1ccccc1
3.95 µM | CNC(=O)c1c2n(c3ncccc13)CCN(S(=O)(=O)c1ccc(-c3ccccc3)cc1)C2
> 50 µM (inactive) | O=C(Nc1ccccc1)c1cn2c3c(cccc3c1=O)CC2
4.71 µM | CC(C)Cc1nc2sc3c(NCc4ccccc4)ncnc3c2c2c1COC(C)(C)C2
26.2 µM | O=C(Cn1c(=O)nc(-c2ccccc2)c2ccccc21)NCc1ccc2c(c1)OCO2
> 50 µM (inactive) | Cc1nc(-c2ccccc2F)sc1C(=O)Nc1cccnc1
> 50 µM (inactive) | N#Cc1ccc(COC(=O)c2ccc3ccccc3n2)cc1
25.7 µM | COc1ccc(NC(=O)COc2cc(CSc3ccccc3)ncc2OC)cc1
3.47 µM | CC(=O)N1CCc2cc(S(=O)(=O)NC(Cc3ccccc3)C(=O)Nc3cccc(Cl)c3C)ccc21 (stereo not given)
> 50 µM (inactive) | Cc1nn(-c2nc3ccccc3[nH]2)c2c1C(c1cccs1)CC(=O)N2 (stereo not given)
> 50 µM (inactive) | COc1ccc(C(C)=O)cc1CC(=O)Nc1nc2ccccc2[nH]1
15.3 µM | Cc1ccc(CNC(=O)c2cccc(N3C(=O)N4CCc5c([nH]c6ccccc56)[C@@]4(C)C3=O)c2)cc1
> 50 µM (inactive) | CCOc1ccc(CCNC(=O)c2ccc3c(c2)N(CC)C(=O)c2ccccc2S3)cc1OCC
34.8 µM | COc1ccc(NC(=O)COc2ccc3ccc(=O)oc3c2)cc1
25.9 µM | c1ccc(-n2nnc(-c3noc(-c4cccnc4)n3)c2-c2ccncc2)cc1
> 50 µM (inactive) | COc1ccc(C2C(C(=O)C(C)(C)C)N3c4ccccc4C=CC3C23C(=O)c2ccccc2C3=O)c(OC)c1 (stereo not given)
1.35 µM | Cc1ccc(-c2nc(NC(=O)COc3ccc(Cl)cc3)no2)cc1
> 50 µM (inactive) | O=C(/C=C/c1ccccc1)N1CCN(C2=NS(=O)(=O)c3ccccc32)CC1
16.9 µM | O=C(c1cn(-c2cccc(F)c2)nn1)N1CCc2ccccc2C1
> 50 µM (inactive) | COc1cccc(-c2nc(C(N)=O)c3[nH]c(=O)n(-c4cccc(Cl)c4)c3n2)c1OC
46.6 µM | O=[N+]([O-])c1cccc(-c2noc(CSc3ccccc3)n2)c1
> 50 µM (inactive) | Cc1cc(C(=O)Nc2cc(C)n(Cc3ccc(Cl)cc3)n2)no1
> 50 µM (inactive) | Cc1ccc(C)c(NS(=O)(=O)c2cc(-c3cnc(C4CC4)o3)ccc2C)c1
20.6 µM | O=C(Cn1cccc1-c1nc(-c2ccccc2)cs1)N1CCOCC1
> 50 µM (inactive) | O=C(Nc1ccc2c(c1)OCO2)c1[nH]nc2c1CCc1ccccc1-2
35.8 µM | Cc1ccccc1-c1nc(CN(C)S(=O)(=O)c2ccccc2)c(C)o1
> 50 µM (inactive) | CC1CC(=O)Nc2ccccc2N1S(=O)(=O)c1ccc(C#N)cc1 (stereo not given)
